Assays:
Assay type in all cases: functional
[1] = tested on: OVCAR-3; assay: Growth inhibition of human OVCAR3 cells assessed as cell growth at 10^-8 M incubated for 48 hrs by sulforhodamine B assay relative to control; conditions: OVCAR-3, 48 h, read-out: Activity
[2] = tested on: CAKI-1; assay: Growth inhibition of human Caki1 cells assessed as cell growth at 10^-6 M incubated for 48 hrs by sulforhodamine B assay relative to control; conditions: CAKI-1, 48 h, read-out: Activity
[3] = tested on: OVCAR-5; assay: Growth inhibition of human OVCAR5 cells assessed as cell growth at 10^-6 M incubated for 48 hrs by sulforhodamine B assay relative to control; conditions: OVCAR-5, 48 h, read-out: Activity
[4] = tested on: ACHN; assay: Growth inhibition of human ACHN cells assessed as cell growth at 10^-8 M incubated for 48 hrs by sulforhodamine B assay relative to control; conditions: read-out: Activity
[5] = tested on: HT-29; assay: Growth inhibition of human HT-29 cells assessed as cell growth at 10^-4 M incubated for 48 hrs by sulforhodamine B assay relative to control; conditions: HT-29, 48 h, read-out: Activity
[6] = tested on: KM12; assay: Growth inhibition of human KM12 cells assessed as cell growth at 10^-5 M incubated for 48 hrs by sulforhodamine B assay relative to control; conditions: KM12, 48 h, read-out: Activity
[7] = tested on: OVCAR-4; assay: Growth inhibition of human OVCAR4 cells assessed as cell growth at 10^-7 M incubated for 48 hrs by sulforhodamine B assay relative to control; conditions: OVCAR-4, 48 h, read-out: Activity
[8] = tested on: OVCAR-4; assay: Growth inhibition of human OVCAR4 cells assessed as cell growth at 10^-5 M incubated for 48 hrs by sulforhodamine B assay relative to control; conditions: OVCAR-4, 48 h, read-out: Activity
[9] = tested on: SK-MEL-2; assay: Growth inhibition of human SK-MEL-2 cells assessed as cell growth at 10^-6 M incubated for 48 hrs by sulforhodamine B assay relative to control; conditions: SK-MEL-2, 48 h, read-out: Activity
[10] = tested on: K562; assay: Growth inhibition of human K562 cells assessed as cell growth at 10^-8 M incubated for 48 hrs by sulforhodamine B assay relative to control; conditions: K562, 48 h, read-out: Activity
[11] = tested on: SNB-19; assay: Growth inhibition of human SNB19 cells assessed as cell growth at 10^-5 M incubated for 48 hrs by sulforhodamine B assay relative to control; conditions: SNB-19, 48 h, read-out: Activity
[12] = tested on: T47D; assay: Growth inhibition of human T47D cells assessed as cell growth at 10^-5 M incubated for 48 hrs by sulforhodamine B assay relative to control; conditions: read-out: Activity
[13] = tested on: SF-539; assay: Growth inhibition of human SF539 cells assessed as cell growth at 10^-8 M incubated for 48 hrs by sulforhodamine B assay relative to control; conditions: SF-539, 48 h, read-out: Activity
[14] = tested on: HCC 2998; assay: Growth inhibition of human HCC2998 cells assessed as cell growth at 10^-8 M incubated for 48 hrs by sulforhodamine B assay relative to control; conditions: HCC 2998, 48 h, read-out: Activity
[15] = tested on: SF-295; assay: Growth inhibition of human SF295 cells assessed as cell growth at 10^-7 M incubated for 48 hrs by sulforhodamine B assay relative to control; conditions: SF-295, 48 h, read-out: Activity
[16] = tested on: PC-3; assay: Growth inhibition of human PC3 cells assessed as cell growth at 10^-4 M incubated for 48 hrs by sulforhodamine B assay relative to control; conditions: PC-3, 48 h, read-out: Activity
[17] = tested on: DU-145; assay: Growth inhibition of human DU145 cells assessed as cell growth at 10^-8 M incubated for 48 hrs by sulforhodamine B assay relative to control; conditions: DU-145, 48 h, read-out: Activity
[18] = tested on: MDA-MB-435; assay: Growth inhibition of human MDA-MB-435 cells assessed as cell growth at 10^-7 M incubated for 48 hrs by sulforhodamine B assay relative to control; conditions: MDA-MB-435, 48 h, read-out: Activity
[19] = tested on: UO-31; assay: Growth inhibition of human UO31 cells assessed as cell growth at 10^-8 M incubated for 48 hrs by sulforhodamine B assay relative to control; conditions: UO-31, 48 h, read-out: Activity
[20] = tested on: PC-3; assay: Growth inhibition of human PC3 cells assessed as cell growth at 10^-6 M incubated for 48 hrs by sulforhodamine B assay relative to control; conditions: PC-3, 48 h, read-out: Activity
[21] = tested on: OVCAR-8; assay: Growth inhibition of human OVCAR8 cells assessed as cell growth at 10^-7 M incubated for 48 hrs by sulforhodamine B assay relative to control; conditions: OVCAR-8, 48 h, read-out: Activity
[22] = tested on: SNB-19; assay: Growth inhibition of human SNB19 cells assessed as cell growth at 10^-8 M incubated for 48 hrs by sulforhodamine B assay relative to control; conditions: SNB-19, 48 h, read-out: Activity
[23] = tested on: CAKI-1; assay: Growth inhibition of human Caki1 cells assessed as cell growth at 10^-4 M incubated for 48 hrs by sulforhodamine B assay relative to control; conditions: CAKI-1, 48 h, read-out: Activity
[24] = tested on: SK-MEL-28; assay: Growth inhibition of human SK-MEL-28 cells assessed as cell growth at 10^-6 M incubated for 48 hrs by sulforhodamine B assay relative to control; conditions: SK-MEL-28, 48 h, read-out: Activity
[25] = tested on: SK-MEL-2; assay: Growth inhibition of human SK-MEL-2 cells assessed as cell growth at 10^-5 M incubated for 48 hrs by sulforhodamine B assay relative to control; conditions: SK-MEL-2, 48 h, read-out: Activity
[26] = tested on: SW-620; assay: Growth inhibition of human SW620 cells assessed as cell growth at 10^-4 M incubated for 48 hrs by sulforhodamine B assay relative to control; conditions: SW-620, 48 h, read-out: Activity
[27] = tested on: SK-OV-3; assay: Growth inhibition of human SKOV3 cells assessed as cell growth at 10^-4 M incubated for 48 hrs by sulforhodamine B assay relative to control; conditions: SK-OV-3, 48 h, read-out: Activity
[28] = tested on: U-251; assay: Growth inhibition of human U251 cells assessed as cell growth at 10^-6 M incubated for 48 hrs by sulforhodamine B assay relative to control; conditions: U-251, 48 h, read-out: Activity
[29] = tested on: MDA-MB-231; assay: Growth inhibition of human MDA-MB-231 cells assessed as cell growth at 10^-4 M incubated for 48 hrs by sulforhodamine B assay relative to control; conditions: MDA-MB-231, 48 h, read-out: Activity
[30] = tested on: NCI/ADR-RES; assay: Growth inhibition of human NCI/ADR-RES cells assessed as cell growth at 10^-4 M incubated for 48 hrs by sulforhodamine B assay relative to control; conditions: read-out: Activity
[31] = tested on: SN12C; assay: Growth inhibition of human SN12C cells assessed as cell growth at 10^-6 M incubated for 48 hrs by sulforhodamine B assay relative to control; conditions: read-out: Activity
[32] = tested on: BT-549; assay: Growth inhibition of human BT549 cells assessed as cell growth at 10^-6 M incubated for 48 hrs by sulforhodamine B assay relative to control; conditions: BT-549, 48 h, read-out: Activity
[33] = tested on: MCF7; assay: Growth inhibition of human MCF7 cells assessed as cell growth at 10^-4 M incubated for 48 hrs by sulforhodamine B assay relative to control; conditions: MCF7, 48 h, read-out: Activity
[34] = tested on: MCF7; assay: Growth inhibition of human MCF7 cells assessed as cell growth at 10^-5 M incubated for 48 hrs by sulforhodamine B assay relative to control; conditions: MCF7, 48 h, read-out: Activity

**Q.** Which growth at 0.01 µM [1] does the source give for CCCCOc1nc2ccccc2cc1C1CNC(=O)c2ccccc2N1 (centres undefined) here?
**A.** 100%

**Q.** What about the growth at 1 µM [2] of the same compound?
**A.** 70%

**Q.** And the growth at 1 µM [3]?
**A.** 98%

**Q.** What about the growth at 0.01 µM [4] of the same compound?
**A.** 103%

**Q.** And the growth at 100 µM [5]?
**A.** -61%

**Q.** And the growth at 10 µM [6]?
**A.** 17%

**Q.** What about the growth at 0.1 µM [7] of the same compound?
**A.** 98%

**Q.** What about the growth at 10 µM [8] of the same compound?
**A.** 37%

**Q.** And the growth at 1 µM [9]?
**A.** 86%

**Q.** What about the growth at 0.01 µM [10] of the same compound?
**A.** 102%

**Q.** And the growth at 10 µM [11]?
**A.** 38%

**Q.** And the growth at 10 µM [12]?
**A.** 36%

**Q.** And the growth at 0.01 µM [13]?
**A.** 89%

**Q.** And the growth at 0.01 µM [14]?
**A.** 99%

**Q.** What about the growth at 0.1 µM [15] of the same compound?
**A.** 88%

**Q.** What about the growth at 100 µM [16] of the same compound?
**A.** -63%

**Q.** What about the growth at 0.01 µM [17] of the same compound?
**A.** 101%

**Q.** What about the growth at 0.1 µM [18] of the same compound?
**A.** 98%

**Q.** What about the growth at 0.01 µM [19] of the same compound?
**A.** 80%

**Q.** What about the growth at 1 µM [20] of the same compound?
**A.** 89%

**Q.** What about the growth at 0.1 µM [21] of the same compound?
**A.** 98%

**Q.** What about the growth at 0.01 µM [22] of the same compound?
**A.** 96%

**Q.** What about the growth at 100 µM [23] of the same compound?
**A.** -22%

**Q.** What about the growth at 1 µM [24] of the same compound?
**A.** 71%

**Q.** What about the growth at 10 µM [25] of the same compound?
**A.** 33%

**Q.** What about the growth at 100 µM [26] of the same compound?
**A.** -24%

**Q.** And the growth at 100 µM [27]?
**A.** -21%

**Q.** What about the growth at 1 µM [28] of the same compound?
**A.** 85%

**Q.** And the growth at 100 µM [29]?
**A.** -53%

**Q.** And the growth at 100 µM [30]?
**A.** -50%

**Q.** What about the growth at 1 µM [31] of the same compound?
**A.** 84%

**Q.** And the growth at 1 µM [32]?
**A.** 84%

**Q.** And the growth at 100 µM [33]?
**A.** -40%

**Q.** And the growth at 10 µM [34]?
**A.** 11%

From ChEMBL document CHEMBL4138146, “A Schmidt rearrangement-mediated synthesis of novel tetrahydro-benzo[1,4]diazepin-5-ones as potential anticancer and antiprotozoal agents” (Eur J Med Chem, 2017)
